System: transmission between the cochlear nerve afferents and the cochlear nucleus neurons
Experiment: Blockade of synaptic transmission in chick cochlear nucleus, in vitro chick brain stem preparation (field potential)
Assay type: cell-based
Conditions: conventional EAA receptor antagonists and agonists
Protocol: The toxin was bath-applied to cochlear nucleus neurons in an in vitro preparation of chick brain stem.
In order to test the effects of the spider venom, late embryos or hatchling chickens were used in all experiments. Brain stems were removed and maintained in vitro using methods known and described in the art, except that the temperature in the recording chamber was held at 32° C. The tissue was superfused in avian Tyrode solution at about 1 ml per minute.
The field potential evoked by direct electrical stimulation of the cochlear nerve was recorded with a 4M potassium acetate electrode. The short latency component of the field potential reflects the compound action […] of cochlear nerve axons. This afferent volley is followed by a negativity representing the postsynaptic response of NM neurons.

| SMILES | concentration required to completely suppress transmission |
| --- | --- |
| O=C(O)[C@H]1CCCN[C@H]1C(=O)O (relative stereo) [cis-2,3-piperidine dicarboxylic acid] | millimolar range |
| N[C@H](CCC(=O)NCC(=O)O)C(=O)O [-D-glutamylglycine] | millimolar range |
| N[C@@H](Cn1oc(=O)[nH]c1=O)C(=O)O [quisqualate] | millimolar concentrations |
